What was measured:
[1] = tested on: yellow nutsedge (Cyperus esculentus); test: Test C pre/postemergence; type: in vivo; settings: for Nutsedge, Yellow plant response rating: scale 0 to 100 (0 no effect, 100 complete control)
How it was run: (§1)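 Test compounds, formulated in a non-phytotoxic solvent mix with surfactant, were applied to freshly planted seeds and, at the same time, to emerged plants at 1- to 4-leaf stage (2 to 18 cm). After 12 to 14 days in the greenhouse, response was scored visually versus controls, 0 = no effect, 100 = complete control.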

[2] = tested on: crabgrass (Digitaria sanguinalis); test: Test C pre/postemergence; type: in vivo; settings: for Crabgrass plant response rating: scale 0 to 100 (0 no effect, 100 complete control)
How it was run: as §1

soybean (Glycine max) = test: Test C pre/postemergence; type: in vivo; settings: for Soybean plant response rating: scale 0 to 100 (0 no effect, 100 complete control)
How it was run: as §1

[3] = tested on: umbrella sedge (Cyperus difformis); test: Test C flooded paddy test; type: in vivo; settings: Flood, scale 0 to 100
How it was run: (§2)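 Response scores reflect visual evaluation after 12 to 14 days in the greenhouse, with 0 for no effect and 100 for complete control relative to untreated plants. Treatment was made at the 2-leaf stage in a flooded paddy setting, and a dash denotes no test result.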

[4] = tested on: duck salad (Heteranthera limosa); test: Test C flooded paddy test; type: in vivo; settings: Flood, scale 0 to 100
How it was run: as §2

[5] = tested on: barnyardgrass (Echinochloa crus-galli); test: Test C flooded paddy test; type: in vivo; settings: Flood
How it was run: as §2

rice (Oryza sativa) = test: Test C flooded paddy test; type: in vivo; settings: Flood, scale 0 to 100
How it was run: as §2

[6] = tested on: blackgrass (Alopecurus myosuroides); test: Test C postemergence; type: in vivo
How it was run: as §1

[7] = tested on: Italian ryegrass (Lolium multiflorum); test: Test C postemergence; type: in vivo; settings: for Ryegrass, Italian plant response rating: scale 0 to 100 (0 no effect, 100 complete control)
How it was run: as §1

wild oat (Avena fatua) = test: Test C postemergence; type: in vivo; settings: for Oat, Wild plant response rating: scale 0 to 100 (0 no effect, 100 complete control)
How it was run: as §1

[8] = tested on: winter barley (Hordeum vulgare); test: Test C postemergence; type: in vivo
How it was run: as §1

[9] = tested on: downy brome (Bromus tectorum); test: Test C postemergence; type: in vivo
How it was run: as §1

[10] = tested on: canarygrass (Phalaris minor); test: Test C postemergence; type: in vivo
How it was run: as §1

[11] = tested on: wheat (Triticum aestivum); test: Test C postemergence; type: in vivo; settings: for Wheat plant response rating: scale 0 to 100 (0 no effect, 100 complete control)
How it was run: as §1

[12] = tested on: green foxtail (Setaria viridis); test: Test C postemergence; type: in vivo; settings: for Foxtail, Green plant response rating: scale 0 to 100 (0 no effect, 100 complete control)
How it was run: as §1

[13] = tested on: windgrass (Apera spica-venti); test: Test C postemergence; type: in vivo; settings: for Windgrass plant response rating: scale 0 to 100 (0 no effect, 100 complete control)
How it was run: as §1

[14] = Postemergence, 250 g ai/ha, scale 0 to 100
[15] = Postemergence, 500 g ai/ha, scale 0 to 100
[16] = Preemergence, 62 g ai/ha, scale 0 to 100, 0 no effect, 100 complete control
[17] = Preemergence, 125 g ai/ha, scale 0 to 100
[18] = Preemergence, 250 g ai/ha, scale 0 to 100
[19] = Preemergence, 500 g ai/ha, scale 0 to 100
[20] = 500 g ai/ha, scale 0 to 100 (0 no effect, 100 complete control)
[21] = 62 g ai/ha, scale 0 to 100 (0 no effect, 100 complete control)
[22] = Preemergence, 16 g ai/ha, scale 0 to 100, 0 no effect, 100 complete control
[23] = Preemergence, 31 g ai/ha, scale 0 to 100, 0 no effect, 100 complete control

CCOC(=O)c1nc(C(C)(C)C)nc(N)c1Br [Compound 36]
69 to 70 °C: melting point

COC(=O)c1nc(-c2ccc(Cl)cc2)nc(N)c1Cl [Compound 58, methyl 6-amino-5-chloro-2-(4-chlorophenyl)-4-pyrimidinecarboxylate]
215 to 218 °C: melting point

Nc1nc(C2CC2)nc(C(=O)[O-])c1Br.[Na+] [Compound 113, 6-amino-5-bromo-2-cyclopropyl-4-pyrimidinecarboxylic acid monosodium salt]
> 300 °C: melting point

CCOC(=O)c1nc(-c2ccccc2)nc(N)c1Br [Compound 18]
110 to 111 °C: melting point

Nc1nc(C2CC2)nc(CO)c1Br [Compound 21]
182 to 185 °C: melting point

COC(=O)c1nc(-c2ccc(Br)cc2)nc(N)c1Cl [Compound 96, methyl 6-amino-2-(4-bromophenyl)-5-chloro-4-pyrimidinecarboxylate]
223 to 224 °C: melting point

CCCOC(=O)c1nc(C2CC2)nc(N)c1Br [Compound 15]
20: Plant response rating, Nutsedge, Yellow [1, 19] | Plant response rating, Rice (rice (Oryza sativa); 250 g ai/ha)
75: Plant response rating, Soybean (soybean (Glycine max); [16]) | Plant response rating, Barnyardgrass [5, 20]
85: Plant response rating, Ducksalad ([4]; 500 g ai/ha)
65: Plant response rating, Crabgrass [2, 14]
25: Plant response rating, Sedge, Umbrella ([3]; 500 g ai/ha) | Plant response rating, Barnyardgrass ([5]; 250 g ai/ha, scale 0 to 100)
95: Plant response rating, Crabgrass [2, 17] | Plant response rating, Crabgrass [2, 18] | Soybean plant response rating (soybean (Glycine max); Postemergence, 62 g ai/ha) | Soybean plant response rating (soybean (Glycine max); Postemergence, 125 g ai/ha) | Plant response rating, Soybean (soybean (Glycine max); [14]) | Plant response rating, Soybean (soybean (Glycine max); [18])
45: Crabgrass plant response rating ([2]; Postemergence, 125 g ai/ha) | Plant response rating, Ducksalad ([4]; 62 g ai/ha) | Plant response rating, Ducksalad ([4]; 125 g ai/ha)
50: Plant response rating, Ducksalad ([4]; 250 g ai/ha) | Plant response rating, Rice (rice (Oryza sativa); 500 g ai/ha)
10: Plant response rating, Sedge, Umbrella ([3]; 250 g ai/ha)
15: Crabgrass plant response rating ([2]; Postemergence, 62 g ai/ha)
100: Plant response rating, Crabgrass [2, 19] | Plant response rating, Soybean (soybean (Glycine max); [15]) | Plant response rating, Soybean (soybean (Glycine max); [19])
90: Plant response rating, Soybean (soybean (Glycine max); [17])
0: Nutsedge, Yellow plant response rating ([1]; Postemergence, 62 g ai/ha) | Nutsedge, Yellow plant response rating ([1]; Postemergence, 125 g ai/ha) | Plant response rating, Nutsedge, Yellow [1, 14] | Plant response rating, Nutsedge, Yellow [1, 15] | Plant response rating, Nutsedge, Yellow [1, 16] | Plant response rating, Nutsedge, Yellow [1, 17] | Plant response rating, Nutsedge, Yellow [1, 18] | Plant response rating, Crabgrass [2, 16] | Plant response rating, Sedge, Umbrella ([3]; 62 g ai/ha) | Plant response rating, Sedge, Umbrella ([3]; 125 g ai/ha) | Plant response rating, Barnyardgrass ([5]; 62 g ai/ha, scale 0 to 100) | Plant response rating, Barnyardgrass ([5]; 125 g ai/ha, scale 0 to 100) | Plant response rating, Rice (rice (Oryza sativa); 62 g ai/ha) | Plant response rating, Rice (rice (Oryza sativa); 125 g ai/ha)
80: Plant response rating, Crabgrass [2, 15]

COC(=O)c1nc(C2CC2)nc(N=CN(C)C)c1Br [Compound 19]
60: Plant response rating (scale of 0 to 100), Blackgrass ([6]; 31 g ai/ha) | Oat, Wild plant response rating (wild oat (Avena fatua); 62 g ai/ha) | Plant response rating, Bromegrass, Downy ([9]; 125 g ai/ha, scale 0 to 100) | Plant response rating (scale of 0 to 100), Canarygrass ([10]; 31 g ai/ha) | Canarygrass plant response rating [10, 21] | Foxtail, Green plant response rating ([12]; 125 g ai/ha) | Windgrass plant response rating ([13]; 62 g ai/ha) | Windgrass plant response rating ([13]; 125 g ai/ha) | Plant response rating, Ducksalad ([4]; 250 g ai/ha) | Plant response rating, Ducksalad ([4]; 500 g ai/ha) | Plant response rating, Barnyardgrass [5, 20]
90: Plant response rating, Soybean (soybean (Glycine max); [17])
65: Blackgrass plant response rating [6, 21] | Plant response rating, Blackgrass ([6]; 125 g ai/ha, scale 0 to 100) | Plant response rating (scale of 0 to 100), Ryegrass, Italian ([7]; 16 g ai/ha) | Plant response rating (scale of 0 to 100), Ryegrass, Italian ([7]; 31 g ai/ha) | Ryegrass, Italian plant response rating ([7]; 62 g ai/ha) | Oat, Wild plant response rating (wild oat (Avena fatua); 125 g ai/ha) | Plant response rating, Canarygrass ([10]; 125 g ai/ha, scale 0 to 100)
45: Plant response rating, Barley ([8]; 125 g ai/ha, scale 0 to 100) | Plant response rating (scale of 0 to 100), Canarygrass ([10]; 16 g ai/ha) | Wheat plant response rating ([11]; 125 g ai/ha) | Foxtail, Green plant response rating ([12]; 62 g ai/ha) | Plant response rating (scale of 0 to 100), Soybean (soybean (Glycine max); Postemergence, 16 g ai/ha)
10: Plant response rating (scale of 0 to 100), Wheat ([11]; 16 g ai/ha) | Plant response rating, Rice (rice (Oryza sativa); 250 g ai/ha)
75: Soybean plant response rating (soybean (Glycine max); Postemergence, 62 g ai/ha) | Soybean plant response rating (soybean (Glycine max); Postemergence, 125 g ai/ha)
70: Ryegrass, Italian plant response rating ([7]; 125 g ai/ha) | Crabgrass plant response rating ([2]; Postemergence, 62 g ai/ha) | Crabgrass plant response rating ([2]; Postemergence, 125 g ai/ha)
50: Bromegrass, Downy plant response rating [9, 21] | Plant response rating, Sedge, Umbrella ([3]; 125 g ai/ha) | Plant response rating, Sedge, Umbrella ([3]; 250 g ai/ha) | Plant response rating, Sedge, Umbrella ([3]; 500 g ai/ha)
0: Plant response rating (scale of 0 to 100), Bromegrass, Downy ([9]; 16 g ai/ha) | Plant response rating (scale of 0 to 100), Bromegrass, Downy ([9]; 31 g ai/ha) | Plant response rating (scale of 0 to 100), Nutsedge, Yellow ([1]; Postemergence, 16 g ai/ha) | Plant response rating (scale of 0 to 100), Nutsedge, Yellow ([1]; Postemergence, 31 g ai/ha) | Nutsedge, Yellow plant response rating ([1]; Postemergence, 62 g ai/ha) | Nutsedge, Yellow plant response rating ([1]; Postemergence, 125 g ai/ha) | Plant response rating, Nutsedge, Yellow [1, 22] | Plant response rating, Nutsedge, Yellow [1, 23] | Plant response rating, Nutsedge, Yellow [1, 16] | Plant response rating, Nutsedge, Yellow [1, 17] | Plant response rating, Crabgrass [2, 22] | Plant response rating, Crabgrass [2, 23] | Plant response rating, Crabgrass [2, 16] | Plant response rating, Crabgrass [2, 17] | Plant response rating, Soybean (soybean (Glycine max); [22]) | Plant response rating, Barnyardgrass ([5]; 62 g ai/ha, scale 0 to 100) | Plant response rating, Barnyardgrass ([5]; 125 g ai/ha, scale 0 to 100) | Plant response rating, Barnyardgrass ([5]; 250 g ai/ha, scale 0 to 100) | Plant response rating, Rice (rice (Oryza sativa); 62 g ai/ha) | Plant response rating, Rice (rice (Oryza sativa); 125 g ai/ha)
35: Barley plant response rating [8, 21] | Plant response rating (scale of 0 to 100), Foxtail, Green ([12]; 31 g ai/ha)
25: Plant response rating (scale of 0 to 100), Barley ([8]; 16 g ai/ha) | Plant response rating (scale of 0 to 100), Barley ([8]; 31 g ai/ha) | Plant response rating, Soybean (soybean (Glycine max); [23])
20: Plant response rating (scale of 0 to 100), Crabgrass ([2]; Postemergence, 16 g ai/ha) | Plant response rating, Sedge, Umbrella ([3]; 62 g ai/ha) | Plant response rating, Ducksalad ([4]; 62 g ai/ha) | Plant response rating, Rice (rice (Oryza sativa); 500 g ai/ha)
40: Plant response rating (scale of 0 to 100), Oat, Wild (wild oat (Avena fatua); 16 g ai/ha) | Plant response rating (scale of 0 to 100), Oat, Wild (wild oat (Avena fatua); 31 g ai/ha) | Wheat plant response rating ([11]; 62 g ai/ha) | Plant response rating (scale of 0 to 100), Windgrass ([13]; 16 g ai/ha) | Plant response rating (scale of 0 to 100), Windgrass ([13]; 31 g ai/ha) | Plant response rating (scale of 0 to 100), Crabgrass ([2]; Postemergence, 31 g ai/ha) | Plant response rating, Ducksalad ([4]; 125 g ai/ha)
55: Plant response rating (scale of 0 to 100), Blackgrass ([6]; 16 g ai/ha) | Plant response rating (scale of 0 to 100), Soybean (soybean (Glycine max); Postemergence, 31 g ai/ha)
30: Plant response rating (scale of 0 to 100), Wheat ([11]; 31 g ai/ha) | Plant response rating (scale of 0 to 100), Foxtail, Green ([12]; 16 g ai/ha)
85: Plant response rating, Soybean (soybean (Glycine max); [16])

Source: patent US8802597B2, “Herbicidal pyrimidines” (E I du Pont de Nemours and Company, priority 2003, dated 2014)
